Key:
Mus musculus [1] = test: Biodistribution in mouse S180 cells xenografted Kunming mouse tumor at 370 kBq/0.1 mL, iv after 30 mins by gamma counting; format: ADME, organism-based, Neoplasm, CCRF S-180; conditions: in vivo, 0.5 h
Liver [2] = test: Biodistribution in mouse S180 cells xenografted Kunming mouse liver at 370 kBq/0.1 mL, iv after 15 mins by gamma counting; format: ADME, organism-based, CCRF S-180; conditions: in vivo, 0.25 h
Kidney [3] = test: Biodistribution in mouse S180 cells xenografted Kunming mouse kidney at 370 kBq/0.1 mL, iv after 120 mins by gamma counting; format: ADME, organism-based, CCRF S-180; conditions: in vivo, 2 h
Kidney [4] = test: Biodistribution in mouse S180 cells xenografted Kunming mouse kidney at 370 kBq/0.1 mL, iv after 60 mins by gamma counting; format: ADME, organism-based, CCRF S-180; conditions: in vivo, 1 h
Heart [5] = test: Biodistribution in mouse S180 cells xenografted Kunming mouse heart at 370 kBq/0.1 mL, iv after 60 mins by gamma counting; format: ADME, organism-based, CCRF S-180; conditions: in vivo, 1 h
Muscle tissue [6] = test: Biodistribution in mouse S180 cells xenografted Kunming mouse muscle at 370 kBq/0.1 mL, iv after 120 mins by gamma counting; format: ADME, organism-based, CCRF S-180; conditions: in vivo, 2 h
Liver [7] = test: Biodistribution in mouse S180 cells xenografted Kunming mouse liver at 370 kBq/0.1 mL, iv after 120 mins by gamma counting; format: ADME, organism-based, CCRF S-180; conditions: in vivo, 2 h
Muscle tissue [8] = test: Biodistribution in mouse S180 cells xenografted Kunming mouse muscle at 370 kBq/0.1 mL, iv after 15 mins by gamma counting; format: ADME, organism-based, CCRF S-180; conditions: in vivo, 0.25 h
Nucleic Acid [9] = test: Ratio of drug level in tumor to muscle in mouse S180 cells xenografted Kunming mouse at 370 kBq/0.1 mL, iv after 30 mins by gamma counting; format: ADME, organism-based, CCRF S-180; conditions: in vivo, 0.5 h
Nucleic Acid [10] = test: Ratio of drug level in tumor to muscle in mouse S180 cells xenografted Kunming mouse at 370 kBq/0.1 mL, iv after 60 mins by gamma counting; format: ADME, organism-based, CCRF S-180; conditions: in vivo, 1 h
Liver [11] = test: Biodistribution in mouse S180 cells xenografted Kunming mouse liver at 370 kBq/0.1 mL, iv after 60 mins by gamma counting; format: ADME, organism-based, CCRF S-180; conditions: in vivo, 1 h
Blood [12] = test: Biodistribution in mouse S180 cells xenografted Kunming mouse blood at 370 kBq/0.1 mL, iv after 60 mins by gamma counting; format: ADME, organism-based, CCRF S-180; conditions: in vivo, 1 h
Spleen = test: Biodistribution in mouse S180 cells xenografted Kunming mouse spleen at 370 kBq/0.1 mL, iv after 60 mins by gamma counting; format: ADME, organism-based, CCRF S-180; conditions: in vivo, 1 h
Mus musculus [13] = test: Biodistribution in mouse S180 cells xenografted Kunming mouse tumor at 370 kBq/0.1 mL, iv after 5 mins by gamma counting; format: ADME, organism-based, Neoplasm, CCRF S-180; conditions: in vivo
Blood [14] = test: Biodistribution in mouse S180 cells xenografted Kunming mouse blood at 370 kBq/0.1 mL, iv after 30 mins by gamma counting; format: ADME, organism-based, CCRF S-180; conditions: in vivo, 0.5 h
Brain [15] = test: Biodistribution in mouse S180 cells xenografted Kunming mouse brain at 370 kBq/0.1 mL, iv after 30 mins by gamma counting; format: ADME, organism-based, CCRF S-180; conditions: in vivo, 0.5 h
Heart [16] = test: Biodistribution in mouse S180 cells xenografted Kunming mouse heart at 370 kBq/0.1 mL, iv after 5 mins by gamma counting; format: ADME, organism-based, CCRF S-180; conditions: in vivo
Lung [17] = test: Biodistribution in mouse S180 cells xenografted Kunming mouse lung at 370 kBq/0.1 mL, iv after 5 mins by gamma counting; format: ADME, organism-based, CCRF S-180; conditions: in vivo
Nucleic Acid [18] = test: Ratio of drug level in tumor to blood in mouse S180 cells xenografted Kunming mouse at 370 kBq/0.1 mL, iv after 60 mins by gamma counting; format: ADME, organism-based, CCRF S-180; conditions: tumour, 1 h
Kidney [19] = test: Biodistribution in mouse S180 cells xenografted Kunming mouse kidney at 370 kBq/0.1 mL, iv after 30 mins by gamma counting; format: ADME, organism-based, CCRF S-180; conditions: in vivo, 0.5 h
Brain [20] = test: Biodistribution in mouse S180 cells xenografted Kunming mouse brain at 370 kBq/0.1 mL, iv after 5 mins by gamma counting; format: ADME, organism-based, CCRF S-180; conditions: in vivo
Heart [21] = test: Biodistribution in mouse S180 cells xenografted Kunming mouse heart at 370 kBq/0.1 mL, iv after 15 mins by gamma counting; format: ADME, organism-based, CCRF S-180; conditions: in vivo, 0.25 h
Nucleic Acid [22] = test: Ratio of drug level in tumor to blood in mouse S180 cells xenografted Kunming mouse at 370 kBq/0.1 mL, iv after 15 mins by gamma counting; format: ADME, organism-based, CCRF S-180; conditions: tumour, 0.25 h
Muscle tissue [23] = test: Biodistribution in mouse S180 cells xenografted Kunming mouse muscle at 370 kBq/0.1 mL, iv after 5 mins by gamma counting; format: ADME, organism-based, CCRF S-180; conditions: in vivo
Nucleic Acid [24] = test: Ratio of drug level in tumor to brain in mouse S180 cells xenografted Kunming mouse at 370 kBq/0.1 mL, iv after 5 mins by gamma counting; format: ADME, organism-based, CCRF S-180; conditions: in vivo
Kidney [25] = test: Biodistribution in mouse S180 cells xenografted Kunming mouse kidney at 370 kBq/0.1 mL, iv after 15 mins by gamma counting; format: ADME, organism-based, CCRF S-180; conditions: in vivo, 0.25 h
Muscle tissue [26] = test: Biodistribution in mouse S180 cells xenografted Kunming mouse muscle at 370 kBq/0.1 mL, iv after 60 mins by gamma counting; format: ADME, organism-based, CCRF S-180; conditions: in vivo, 1 h
Liver [27] = test: Biodistribution in mouse S180 cells xenografted Kunming mouse liver at 370 kBq/0.1 mL, iv after 30 mins by gamma counting; format: ADME, organism-based, CCRF S-180; conditions: in vivo, 0.5 h
CCRF S-180 [28] = test: Cellular uptake in mouse S180 cells after 60 mins; format: ADME, cell-based; conditions: ccrf s-180, 1 h
Blood [29] = test: Biodistribution in mouse S180 cells xenografted Kunming mouse blood at 370 kBq/0.1 mL, iv after 15 mins by gamma counting; format: ADME, organism-based, CCRF S-180; conditions: in vivo, 0.25 h
Nucleic Acid [30] = test: Ratio of drug level in tumor to muscle in mouse S180 cells xenografted Kunming mouse at 370 kBq/0.1 mL, iv after 5 mins by gamma counting; format: ADME, organism-based, CCRF S-180; conditions: in vivo
Brain [31] = test: Biodistribution in mouse S180 cells xenografted Kunming mouse brain at 370 kBq/0.1 mL, iv after 60 mins by gamma counting; format: ADME, organism-based, CCRF S-180; conditions: in vivo, 1 h
Heart [32] = test: Biodistribution in mouse S180 cells xenografted Kunming mouse heart at 370 kBq/0.1 mL, iv after 120 mins by gamma counting; format: ADME, organism-based, CCRF S-180; conditions: in vivo, 2 h
CCRF S-180 [33] = test: Cellular uptake in mouse S180 cells relative to [18F]FDG; format: ADME, cell-based
Mus musculus [34] = test: Biodistribution in mouse S180 cells xenografted Kunming mouse tumor at 370 kBq/0.1 mL, iv after 120 mins by gamma counting; format: ADME, organism-based, Neoplasm, CCRF S-180; conditions: in vivo, 2 h
Liver [35] = test: Biodistribution in mouse S180 cells xenografted Kunming mouse liver at 370 kBq/0.1 mL, iv after 5 mins by gamma counting; format: ADME, organism-based, CCRF S-180; conditions: in vivo
Mus musculus [36] = test: Biodistribution in mouse S180 cells xenografted Kunming mouse tumor at 370 kBq/0.1 mL, iv after 15 mins by gamma counting; format: ADME, organism-based, Neoplasm, CCRF S-180; conditions: in vivo, 0.25 h
Lung [37] = test: Biodistribution in mouse S180 cells xenografted Kunming mouse lung at 370 kBq/0.1 mL, iv after 15 mins by gamma counting; format: ADME, organism-based, CCRF S-180; conditions: in vivo, 0.25 h
Brain [38] = test: Biodistribution in mouse S180 cells xenografted Kunming mouse brain at 370 kBq/0.1 mL, iv after 15 mins by gamma counting; format: ADME, organism-based, CCRF S-180; conditions: in vivo, 0.25 h
Nucleic Acid [39] = test: Ratio of drug level in tumor to blood in mouse S180 cells xenografted Kunming mouse at 370 kBq/0.1 mL, iv after 30 mins by gamma counting; format: ADME, organism-based, CCRF S-180; conditions: tumour, 0.5 h
Nucleic Acid [40] = test: Ratio of drug level in tumor to brain in mouse S180 cells xenografted Kunming mouse at 370 kBq/0.1 mL, iv after 15 mins by gamma counting; format: ADME, organism-based, CCRF S-180; conditions: in vivo, 0.25 h
Muscle tissue [41] = test: Biodistribution in mouse S180 cells xenografted Kunming mouse muscle at 370 kBq/0.1 mL, iv after 30 mins by gamma counting; format: ADME, organism-based, CCRF S-180; conditions: in vivo, 0.5 h
Lung [42] = test: Biodistribution in mouse S180 cells xenografted Kunming mouse lung at 370 kBq/0.1 mL, iv after 30 mins by gamma counting; format: ADME, organism-based, CCRF S-180; conditions: in vivo, 0.5 h

SMILES: Cc1cc(NCC[18F])n2ncc(C#N)c2n1
- Drug uptake (Mus musculus [1]): 5.51 % ID/g
- Drug uptake (Liver [2]): 4.02 % ID/g
- Drug uptake (Kidney [3]): 1.92 % ID/g
- Drug uptake (Kidney [4]): 2.58 % ID/g
- Drug uptake (Heart [5]): 3.46 % ID/g
- Drug uptake (Muscle tissue [6]): 2.64 % ID/g
- Drug uptake (Liver [7]): 1.84 % ID/g
- Drug uptake (Muscle tissue [8]): 3.84 % ID/g
- Ratio (Nucleic Acid [9]): 1.81
- Ratio (Nucleic Acid [10]): 1.28
- Drug uptake (Liver [11]): 2.45 % ID/g
- Drug uptake (Blood [12]): 3.63 % ID/g
- Drug uptake (Spleen): 2.82 % ID/g
- Drug uptake (Mus musculus [13]): 1.88 % ID/g
- Drug uptake (Blood [14]): 4.49 % ID/g
- Drug uptake (Brain [15]): 2.47 % ID/g
- Drug uptake (Heart [16]): 5.53 % ID/g
- Drug uptake (Lung [17]): 6.61 % ID/g
- Ratio (Nucleic Acid [18]): 0.81
- Drug uptake (Kidney [19]): 3.28 % ID/g
- Drug uptake (Brain [20]): 3.17 % ID/g
- Drug uptake (Heart [21]): 3.57 % ID/g
- Ratio (Nucleic Acid [22]): 0.94
- Drug uptake (Muscle tissue [23]): 3.99 % ID/g
- Ratio (Nucleic Acid [24]): 0.59
- Drug uptake (Kidney [25]): 5.04 % ID/g
- Drug uptake (Muscle tissue [26]): 2.31 % ID/g
- Drug uptake (Liver [27]): 3.17 % ID/g
- Drug uptake (CCRF S-180 [28]): 9%
- Drug uptake (Blood [29]): 4.65 % ID/g
- Ratio (Nucleic Acid [30]): 0.47
- Drug uptake (Brain [31]): 1.93 % ID/g
- Drug uptake (Heart [32]): 2.59 % ID/g
- fold change (FC) (CCRF S-180 [33]): 2
- Drug uptake (Mus musculus [34]): 2.88 % ID/g
- Drug uptake (Liver [35]): 6.99 % ID/g
- Drug uptake (Mus musculus [36]): 4.37 % ID/g
- Drug uptake (Lung [37]): 3.79 % ID/g
- Drug uptake (Brain [38]): 2.7 % ID/g
- Ratio (Nucleic Acid [39]): 1.23
- Ratio (Nucleic Acid [40]): 1.62
- Drug uptake (Muscle tissue [41]): 3.05 % ID/g
- Drug uptake (Lung [42]): 3.77 % ID/g

— ChEMBL document CHEMBL1806489, “Synthesis and biological evaluation of novel F-18 labeled pyrazolo[1,5-a]pyrimidine derivatives: potential PET imaging agents for tumor detection” (Bioorg Med Chem Lett, 2011)
